According to patent US9440982B2 (Eolas Therapeutics, Inc., priority 2012, dated 2016):
Where two headings read alike, the source gives them in different places.

Assays:
CYP3A4 = molecular target: T1, CYP3A4 (Homo sapiens, UniProt P08684); test: Cytochrome P450 inhibition assay (midazolam hydroxylation); format: in vitro ADME; settings: human, human liver microsomes, probe midazolam (hydroxylation to 1′-hydroxymidazolam), 10 μM test compound, midazolam at approximately its Km
T1 construct: pre-incubated with human liver microsomes and NADPH; from tissue; host or cells: human liver microsomes
Outline: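 Percent inhibition of midazolam 1′-hydroxylation by 10 μM compound was measured, midazolam dosed at about Km. Time-dependent inhibition was probed by a 30 min preincubation of compound with human liver microsomes and NADPH ahead of substrate, compared against samples without preincubation.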

OX1 = molecular target: T2, OX1 (Homo sapiens, UniProt O43613); test: Orexin receptor cell-based functional assay, [Ca2+]i by FLIPR, CHO-OX1 cells
T2 construct: expressed in transfected cells; host or cells: CHO (CHO-OX1, kept under selection antibiotic)
T2 sequence (O43613 1-425): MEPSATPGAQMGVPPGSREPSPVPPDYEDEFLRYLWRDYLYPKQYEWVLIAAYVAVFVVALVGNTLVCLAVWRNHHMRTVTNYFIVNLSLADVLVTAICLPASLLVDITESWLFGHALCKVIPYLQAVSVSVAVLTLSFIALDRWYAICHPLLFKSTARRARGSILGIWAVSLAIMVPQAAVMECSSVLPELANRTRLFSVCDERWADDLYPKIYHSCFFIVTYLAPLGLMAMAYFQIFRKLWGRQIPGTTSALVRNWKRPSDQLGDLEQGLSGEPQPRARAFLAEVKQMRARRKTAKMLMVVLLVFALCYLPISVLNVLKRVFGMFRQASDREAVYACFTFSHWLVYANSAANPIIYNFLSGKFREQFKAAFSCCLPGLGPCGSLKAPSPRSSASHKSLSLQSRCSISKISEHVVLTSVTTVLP
Outline: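 Antagonist mode FLIPR calcium read in CHO-OX1 and CHO-OX2 lines. Test compounds, dosed 0.1 nM-10 μM, preincubated 30 min after 37° C dye loading with 2.5 mM probenecid (calcium4 for 30 min or calcium6 for 2 h).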

[1] = CHO-OX1 cells, [Ca2+]i by FLIPR, antagonist dose-range 0.1 nM-10 μM, EC90 of OXA, read-out: OX1

T1 sequence (P08684 whole entry): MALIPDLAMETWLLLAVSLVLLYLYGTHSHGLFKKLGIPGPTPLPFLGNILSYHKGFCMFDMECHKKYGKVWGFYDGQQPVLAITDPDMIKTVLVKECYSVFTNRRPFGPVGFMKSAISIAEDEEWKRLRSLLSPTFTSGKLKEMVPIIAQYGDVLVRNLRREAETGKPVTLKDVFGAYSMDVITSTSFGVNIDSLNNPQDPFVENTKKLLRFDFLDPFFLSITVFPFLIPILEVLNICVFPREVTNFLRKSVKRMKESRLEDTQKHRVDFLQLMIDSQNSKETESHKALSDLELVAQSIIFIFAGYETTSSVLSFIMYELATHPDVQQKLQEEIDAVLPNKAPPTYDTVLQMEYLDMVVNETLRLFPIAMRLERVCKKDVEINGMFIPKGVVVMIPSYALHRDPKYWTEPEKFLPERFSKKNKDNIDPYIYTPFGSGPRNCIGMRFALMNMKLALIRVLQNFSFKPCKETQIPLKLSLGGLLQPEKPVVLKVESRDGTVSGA

Compound | inhibition at 10 µM (CYP3A4) | IC50 (OX1; [1]) | IC50 (OX1; Table 6, racemate vs enantiomers, read-out: OX1 IC50)
Cc1ccc(-n2nccn2)c(C(=O)N2CCC[C@@H](C)[C@H]2CNc2ccc(C3(C#N)CC3)cn2)c1 [Example A140, 1-(6-((((2S,3R)-3-Methyl-1-(5-methyl-2-(2H-1,2,3-triazol-2-yl)benzoyl)piperidin-2-yl)methyl)amino)pyridin-3-yl)cyclopropanecarbonitrile] | 64% | 13 nM | 
Cc1ccc(-n2nccn2)c(C(=O)N2CCC[C@@H](C)[C@H]2CNc2ccc(C#N)cn2)c1 [Example A127, 6-((((2S,3R)-3-Methyl-1-(5-methyl-2-(2H-1,2,3-triazol-2-yl)benzoyl)piperidin-2-yl)methyl)amino)nicotinonitrile] | 57% | 5 nM | 
Cc1nc(C(=O)N2CCC[C@H](C)[C@@H]2CNc2ccc(C(F)(F)F)cn2)c(-c2ccc(F)cc2)s1 [Example A43, (5-(4-Fluorophenyl)-2-methylthiazol-4-yl)((2R,3S)-3-methyl-2-(((5-(trifluoromethyl)pyridin-2-yl)amino)methyl)piperidin-1-yl)methanone] | 55% | 670 nM | 670 nM
Cc1nc(C(=O)N2CCC[C@@H](C)[C@H]2CNc2ncc(Cl)cn2)c(-c2ccc(F)cc2)s1 [Example A41, ((2S,3R)-2-(((5-Chloropyrimidin-2-yl)amino)methyl)-3-methylpiperidin-1-yl)(5-(4-fluorophenyl)-2-methylthiazol-4-yl)methanone] | 52% | 4 nM | 
Cc1ccc(-n2nccn2)c(C(=O)N2CCC[C@@H](C)[C@H]2CNc2ccc(C(F)(F)F)cn2)n1 [Example A174, ((2S,3R)-3-Methyl-2-(((5-(trifluoromethyl)pyridin-2-yl)amino)methyl)piperidin-1-yl)(6-methyl-3-(2H-1,2,3-triazol-2-yl)pyridin-2-yl)methanone] | 51% | 1 nM | 
Cc1ccc(-c2cn[nH]c2)c(C(=O)N2CCC[C@@H](C)[C@H]2CNc2ccc(C(F)(F)F)cn2)c1 [Example A3, ((2S,3R)-3-Methyl-2-(((5-(trifluoromethyl)pyridin-2-yl)amino)methyl)piperidin-1-yl)(5-methyl-2-(1H-pyrazol-4-yl)phenyl)methanone] | 98% | 6 nM | 
Cc1ccc(-c2ncccn2)c(C(=O)N2CCC[C@@H](C)[C@H]2CNc2ccc(Cl)cn2)c1 [Example A138, ((2S,3R)-2-(((5-Chloropyridin-2-yl)amino)methyl)-3-methylpiperidin-1-yl)(5-methyl-2-(pyrimidin-2-yl)phenyl)methanone] | 75% | 12 nM | 
C[C@@H]1CCCN(C(=O)c2cc(F)c(F)cc2-n2nccn2)[C@@H]1CNc1ncc(C(F)(F)F)cn1 [Example A248, (4,5-Difluoro-2-(2H-1,2,3-triazol-2-yl)phenyl)((2S,3R)-3-methyl-2-(((5-(trifluoromethyl)pyrimidin-2-yl)amino)methyl)piperidin-1-yl)methanone] | 67% | 20 nM | 
Cc1ccc(-n2nccn2)c(C(=O)N2CCC[C@@H](C)[C@H]2CNc2ncc(C(F)(F)F)cn2)n1 [Example A175, ((2S,3R)-3-Methyl-2-(((5-(trifluoromethyl)pyrimidin-2-yl)amino)methyl)piperidin-1-yl)(6-methyl-3-(2H-1,2,3-triazol-2-yl)pyridin-2-yl)methanone] | 33% | 1 nM | 
Cc1ccc(-c2ncccn2)c(C(=O)N2CCC[C@@H](C)[C@H]2CNc2ccc(C(F)(F)F)nn2)n1 [Example A185, ((2S,3R)-3-Methyl-2-(((6-(trifluoromethyl)pyridazin-3-yl)amino)methyl)piperidin-1-yl)(6-methyl-3-(pyrimidin-2-yl)pyridin-2-yl)methanone] | 33% | 46 nM | 
